In US20240116946A1 (Gilead Sciences, Inc., priority 2022, published 2024):
Where two headings read alike, the source gives them in different places.

Legend:
SARS-CoV-2-NLuc = experiment: microbe, parasite or virus in culture; assay type: cell-based, SARS Coronavirus 2; conditions: read-out: MPro EC50
[1] = target: recombinant SARS-CoV-2 Main protease (Mpro) (Severe acute respiratory syndrome coronavirus 2 (2019-nCoV) (SARS-CoV-2), UniProt P0DTD1); experiment: Cov Mpro Biochemical IC50 Assay; conditions: read-out: MPro IC50
[2] = recombinant SARS-CoV-2 Mpro 7.5 nM, fluorogenic peptide substrate 40 μM
[3] = Severe acute respiratory syndrome coronavirus, 48 h
[4] = recombinant SARS-CoV-2 Mpro, fluorogenic peptide substrate

Molecule | EC50 (SARS-CoV-2-NLuc) | IC50 [1, 2] | EC50 (SARS-CoV-2-NLuc; [3]) | IC50 [1, 4]
5-fluoro-2-[6-fluoro-3-(4-isoquinolyl)-2,4-dioxo-1H-quinazolin-7-yl]-4-methoxy-benzonitrile [Example 517] | 35.9 nM | 9.51 nM |  | 
6-[2-chloro-6-(8-methyl-[1,2,4]triazolo[1,5-a]pyridin-6-yl)phenyl]-3-(6-methoxy-4-isoquinolyl)-1H-thieno[3,2-d]pyrimidine-2,4-dione [Example 565] | 58.1 nM | 16.5 nM |  | 
COc1ccc(C#N)c(-c2cc3c(cc2F)c(=O)n(-c2cncc4ccccc24)c(=O)n3CC#N)c1 (atropisomer, axis not shown) [Example 701] |  | < 3.63 nM | 79.9 nM | 
COc1ccc(Cl)c(-c2cc3c(s2)c(=O)n(-c2cncc4ccccc24)c(=O)n3CC#N)c1 (atropisomer, axis not shown) [Example 702] |  | < 2.98 nM | 2.4 nM | 
COc1cc(-c2cc3c(s2)c(=O)n(-c2cncc4cccc(C)c24)c(=O)n3CCC#N)c(Cl)cc1F (atropisomer, axis not shown) [Example 920] |  | 5.5 nM | 4.25 nM | 
O=c1[nH]c2cc(-c3ccccc3Cl)ccc2c(=O)n1-c1cncc2ccccc12 (single isomer, unassigned) [Example 104, 7-(2-chlorophenyl)-3-(isoquinolin-4-yl)quinazoline-2,4(1H,3H)-dione] | 3920 nM |  |  | 6790 nM
O=c1[nH]c2cc(-c3ccccc3Cl)ccc2c(=O)n1-c1cncc2ccccc12 (single isomer, unassigned) [Example 105, 7-(2-chlorophenyl)-3-(isoquinolin-4-yl)quinazoline-2,4(1H,3H)-dione] | 74.3 nM |  |  | 70.9 nM
O=c1[nH]c2cc(-c3ccccc3Cl)sc2c(=O)n1-c1cncc2ccccc12 (single isomer, unassigned) [Example 150, 6-(2-chlorophenyl)-3-(isoquinolin-4-yl)thieno[3,2-d]pyrimidine-2,4(1H,3H)-dione] | 124 nM |  |  | 73 nM
O=c1[nH]c2cc(-c3ccccc3Cl)sc2c(=O)n1-c1cncc2ccccc12 (single isomer, unassigned) [Example 151, 6-(2-chlorophenyl)-3-(isoquinolin-4-yl)thieno[3,2-d]pyrimidine-2,4(1H,3H)-dione] | 1.73 nM |  |  | < 2.54 nM
COc1ccc(C#N)c(-c2cc3[nH]c(=O)n(-c4cncc5ccccc45)c(=O)c3cc2F)c1 (single isomer, unassigned) [Example 438, 2-(6-fluoro-3-(isoquinolin-4-yl)-2,4-dioxo-1,2,3,4-tetrahydroquinazolin-7-yl)-4-methoxybenzonitrile] | < 11.4 nM | < 4.17 nM |  | 
COc1ccc(C#N)c(-c2cc3[nH]c(=O)n(-c4cncc5ccccc45)c(=O)c3cc2F)c1 (single isomer, unassigned) [Example 439, 2-(6-fluoro-3-(isoquinolin-4-yl)-2,4-dioxo-1,2,3,4-tetrahydroquinazolin-7-yl)-4-methoxybenzonitrile] | 377 nM | 828 nM |  | 
COc1ccc2cncc(-n3c(=O)[nH]c4cc(-c5ccccc5Cl)sc4c3=O)c2c1 (single isomer, unassigned) [Example 441, 6-(2-chlorophenyl)-3-(6-methoxyisoquinolin-4-yl)thieno[3,2-d]pyrimidine-2,4(1H,3H)-dione] | 239 nM | 109 nM |  | 
O=c1[nH]c2cc(-c3ccccc3Cl)sc2c(=O)n1-c1cncc2ccc(N3CCOCC3)cc12 (single isomer, unassigned) [Example 443, 6-(2-chlorophenyl)-3-(6-morpholinoisoquinolin-4-yl)thieno[3,2-d]pyrimidine-2,4(1H,3H)-dione] | 45 nM | 18.8 nM |  | 
Cn1cc(-c2cccc(Cl)c2-c2cc3[nH]c(=O)n(-c4cncc5ccccc45)c(=O)c3s2)c(C(F)(F)F)n1 (single isomer, unassigned) [Example 448, 6-(2-chloro-6-(1-methyl-3-(trifluoromethyl)-1H-pyrazol-4-yl)phenyl)-3-(isoquinolin-4-yl)thieno[3,2-d]pyrimidine-2,4(1H,3H)-dione] | 382 nM | 383 nM |  | 
O=c1[nH]c2cc(-c3ccccc3Cl)sc2c(=O)n1-c1cncc2cccnc12 (single isomer, unassigned) [Example 463, 6-(2-chlorophenyl)-3-(1,6-naphthyridin-8-yl)thieno[3,2-d]pyrimidine-2,4(1H,3H)-dione] | 464 nM | 202 nM |  | 
COc1ccc(Cl)c(-c2cc3[nH]c(=O)n(-c4cncc5ccccc45)c(=O)c3s2)c1 (single isomer, unassigned) [Example 466, 6-(2-chloro-5-methoxyphenyl)-3-(isoquinolin-4-yl)thieno[3,2-d]pyrimidine-2,4(1H,3H)-dione] | 152 nM | 156 nM |  | 

Molecule | EC50 (SARS-CoV-2-NLuc) | IC50 [1, 2] | EC50 (SARS-CoV-2-NLuc; [3]) | IC50 [1, 4]
COc1ccc(Cl)c(-c2cc3[nH]c(=O)n(-c4cncc5cccnc45)c(=O)c3s2)c1 (single isomer, unassigned) [Example 467, 6-(2-chloro-5-methoxyphenyl)-3-(1,6-naphthyridin-8-yl)thieno[3,2-d]pyrimidine-2,4(1H,3H)-dione] | 38.1 nM | 11.4 nM |  | 
COc1ccc(Cl)c(-c2ccc3c(=O)n(-c4cncc5ccccc45)c(=O)[nH]c3c2)c1 (single isomer, unassigned) [Example 476, 7-(2-chloro-5-methoxy-phenyl)-3-(4-isoquinolyl)-1H-quinazoline-2,4-dione] | 259 nM | 258 nM |  | 
Cn1cnc(Cn2c(=O)n(-c3cncc4ccccc34)c(=O)c3sc(-c4ccccc4Cl)cc32)n1 (single isomer, unassigned) [Example 478, 6-(2-chlorophenyl)-3-(4-isoquinolyl)-1-[(1-methyl-1,2,4-triazol-3-yl)methyl]thieno[3,2-d]pyrimidine-2,4-dione] | 8280 nM | 4290 nM |  | 
COc1cc(-c2cc3[nH]c(=O)n(-c4cncc5ccccc45)c(=O)c3cc2F)c(C#N)cc1F (single isomer, unassigned) [Example 510, 5-fluoro-2-[6-fluoro-3-(4-isoquinolyl)-2,4-dioxo-1H-quinazolin-7-yl]-4-methoxy-benzonitrile] | 16.2 nM | 7.05 nM |  | 
COc1cc(-c2cc3[nH]c(=O)n(-c4cncc5ccccc45)c(=O)c3cc2F)c(C#N)cc1F (single isomer, unassigned) [Example 511, 5-fluoro-2-[6-fluoro-3-(4-isoquinolyl)-2,4-dioxo-1H-quinazolin-7-yl]-4-methoxy-benzonitrile] | 604 nM | 913 nM |  | 
COc1ccc(C#N)c(-c2cc3[nH]c(=O)n(-c4cncc5ccccc45)c(=O)c3s2)c1 (single isomer, unassigned) [Example 554, 2-(3-(isoquinolin-4-yl)-2,4-dioxo-1,2,3,4-tetrahydrothieno[3,2-d]pyrimidin-6-yl)-4-methoxybenzonitrile] | 14.9 nM | 3.88 nM |  | 
COc1ccc(C#N)c(-c2cc3[nH]c(=O)n(-c4cncc5ccccc45)c(=O)c3s2)c1 (single isomer, unassigned) [Example 555, 2-(3-(isoquinolin-4-yl)-2,4-dioxo-1,2,3,4-tetrahydrothieno[3,2-d]pyrimidin-6-yl)-4-methoxybenzonitrile] | 79.6 nM | 21.5 nM |  | 
COc1cc(-c2cc3[nH]c(=O)n(-c4cncc5ccccc45)c(=O)c3s2)c(Cl)cc1F (single isomer, unassigned) [Example 556, 6-(2-chloro-4-fluoro-5-methoxyphenyl)-3-(isoquinolin-4-yl)thieno[3,2-d]pyrimidine-2,4(1H,3H)-dione] | 2.04 nM | 3.41 nM |  | 
COc1cc(-c2cc3[nH]c(=O)n(-c4cncc5ccccc45)c(=O)c3s2)c(Cl)cc1F (single isomer, unassigned) [Example 557, 6-(2-chloro-4-fluoro-5-methoxyphenyl)-3-(isoquinolin-4-yl)thieno[3,2-d]pyrimidine-2,4(1H,3H)-dione] | 65.4 nM | 103 nM |  | 
COc1ccc(C#N)c(-c2ccc3c(=O)n(-c4cncc5ccccc45)c(=O)[nH]c3c2)c1 (single isomer, unassigned) [Example 569, 2-[3-(4-isoquinolyl)-2,4-dioxo-1H-quinazolin-7-yl]-4-methoxy-benzonitrile] | 20.5 nM | 8.41 nM |  | 
COc1ccc(C#N)c(-c2ccc3c(=O)n(-c4cncc5ccccc45)c(=O)[nH]c3c2)c1 (single isomer, unassigned) [Example 570, 2-[3-(4-isoquinolyl)-2,4-dioxo-1H-quinazolin-7-yl]-4-methoxy-benzonitrile] | 700 nM | 1310 nM |  | 
COc1cc(-c2cc3[nH]c(=O)n(-c4cncc5ccccc45)c(=O)c3cc2OC)c(C#N)cc1F (single isomer, unassigned) [Example 571, 5-fluoro-2-[3-(4-isoquinolyl)-6-methoxy-2,4-dioxo-1H-quinazolin-7-yl]-4-methoxy-benzonitrile] | 171 nM | 77.1 nM |  | 
COc1cc(-c2cc3[nH]c(=O)n(-c4cncc5ccccc45)c(=O)c3cc2OC)c(C#N)cc1F (single isomer, unassigned) [Example 572, 5-fluoro-2-[3-(4-isoquinolyl)-6-methoxy-2,4-dioxo-1H-quinazolin-7-yl]-4-methoxy-benzonitrile] | 10.6 nM | 2.9 nM |  | 
COc1cnc(Cl)c(-c2cc3[nH]c(=O)n(-c4cncc5ccccc45)c(=O)c3s2)c1 (single isomer, unassigned) [Example 628, 6-(2-chloro-5-methoxypyridin-3-yl)-3-(isoquinolin-4-yl)thieno[3,2-d]pyrimidine-2,4(1H,3H)-dione] | 15.9 nM | 3.26 nM |  | 
COc1cc(-c2cc3c(s2)c(=O)n(-c2cncc4cnn(C)c24)c(=O)n3CC2(CC#N)CC2)c(Cl)cc1F [Example 659] |  | 40.9 nM |  | 
